# pEC50, pIC50: −log10 of the molar value.
# Tests used:
# [1] = test system: HeLa; test: Antiproliferative activity against human HeLa cells incubated for 72 hrs by Cell Titer Glo luminescence assay; assay type: functional, cell-based
# [2] = Selectivity ratio of IC50 for inhibition of full-length human PDE3A expressed in Sf9 cells to EC50 for antiproliferative activity against human HeLa cells
# [3] = test system: SK-MEL3; test: Antiproliferative activity against human SK-MEL3 cells incubated for 72 hrs by Cell Titer Glo luminescence assay; assay type: functional, cell-based; conditions: SK-MEL3, 72 h
# [4] = target: cGMP-inhibited 3',5'-cyclic phosphodiesterase 3A (Homo sapiens, UniProt Q14432); test: Inhibition of human full-length PDE3A expressed in Sf9 cells using [8-3H]adenosine 3', 5'-cyclic phosphate as substrate incubated for 60 mins by microbeta scintillation counting method
# cGMP-inhibited 3',5'-cyclic phosphodiesterase 3A, sequence (Q14432 whole entry): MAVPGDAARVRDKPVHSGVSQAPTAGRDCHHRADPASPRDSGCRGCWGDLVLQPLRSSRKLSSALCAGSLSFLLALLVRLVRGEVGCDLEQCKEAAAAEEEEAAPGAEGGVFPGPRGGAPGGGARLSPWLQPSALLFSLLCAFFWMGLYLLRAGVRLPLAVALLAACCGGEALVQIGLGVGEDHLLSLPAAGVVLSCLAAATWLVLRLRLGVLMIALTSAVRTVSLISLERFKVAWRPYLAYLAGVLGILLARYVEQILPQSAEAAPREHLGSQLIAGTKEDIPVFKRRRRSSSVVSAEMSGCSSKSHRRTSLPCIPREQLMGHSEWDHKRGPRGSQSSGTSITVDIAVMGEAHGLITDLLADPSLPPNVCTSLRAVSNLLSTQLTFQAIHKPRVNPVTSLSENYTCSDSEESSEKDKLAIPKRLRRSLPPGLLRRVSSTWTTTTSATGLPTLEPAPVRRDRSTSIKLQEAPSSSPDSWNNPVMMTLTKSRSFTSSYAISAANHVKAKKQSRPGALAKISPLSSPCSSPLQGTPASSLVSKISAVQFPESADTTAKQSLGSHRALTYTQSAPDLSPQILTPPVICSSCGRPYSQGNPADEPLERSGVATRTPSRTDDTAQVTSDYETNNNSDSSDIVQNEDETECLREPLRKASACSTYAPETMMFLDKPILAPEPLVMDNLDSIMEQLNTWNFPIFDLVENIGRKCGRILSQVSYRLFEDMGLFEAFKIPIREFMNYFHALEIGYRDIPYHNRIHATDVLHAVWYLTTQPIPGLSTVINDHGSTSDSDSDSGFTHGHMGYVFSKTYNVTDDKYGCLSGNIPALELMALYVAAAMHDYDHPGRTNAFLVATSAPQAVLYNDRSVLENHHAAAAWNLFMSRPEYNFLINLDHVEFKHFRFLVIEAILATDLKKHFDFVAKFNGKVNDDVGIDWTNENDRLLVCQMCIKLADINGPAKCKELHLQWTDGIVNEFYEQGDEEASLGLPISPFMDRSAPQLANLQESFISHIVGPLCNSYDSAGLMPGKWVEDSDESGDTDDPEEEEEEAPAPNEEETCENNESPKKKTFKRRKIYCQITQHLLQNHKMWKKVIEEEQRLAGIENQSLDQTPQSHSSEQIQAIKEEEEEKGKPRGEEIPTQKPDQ
# [5] = Metabolic stability in rat hepatocytes assessed as bioavailability at 1 uM measured upto 90 mins by LC-MS/MS analysis; assay type: ADME, Hepatocyte
# [6] = Metabolic stability in mouse hepatocytes assessed as bioavailability at 1 uM measured upto 90 mins by LC-MS/MS analysis; assay type: ADME, Hepatocyte
# [7] = Metabolic stability in dog hepatocytes assessed as bioavailability at 1 uM measured upto 90 mins by LC-MS/MS analysis; assay type: ADME, Canis lupus familiaris, Hepatocyte
# [8] = Metabolic stability in human hepatocytes assessed as bioavailability at 1 uM measured upto 90 mins by LC-MS/MS analysis; assay type: ADME, Hepatocyte
# [9] = Clearance in mouse blood; assay type: ADME, tissue-based
Compound,pEC50 [1],Ratio IC50/EC50 [2],pEC50 [3],pIC50 [4],predicted hepatic bioavailability (Fh) from hepatocyte stability at 1 µM [5],"Fh at 1.5 h, 1 µM [6]","Fh at 1.5 h, 1 µM [7]",hepatic bioavailability predicted from hepatocyte stability (Fh) at 1 µM [8],clearance [9]
Cc1ccncc1-c1ccc(C2=NNC(=O)O[C@H]2C)cc1C(F)(F)F,7.41,6,7.27,–,–,–,–,–,–
C[C@@H]1OC(=O)NN=C1c1ccc(-c2ccc(Cl)cn2)c(C(F)(F)F)c1,7.95,>90,9.60,< 6.00,78%,53%,24%,–,–
Cc1cc(C2=NNC(=O)OC2)ccc1-c1ccc(F)cc1,8.31,44,7.89,–,88%,40%,48%,75%,–
O=C1CCC(c2ccc(N3CCOCC3)cc2)=NN1,7.11,>12,7.00,< 6.00,–,–,–,–,–
C[C@@H]1OC(=O)NN=C1c1ccc(N2CCOCC2)c(F)c1,8.74,23,8.59,7.37,90%,–,–,–,–
C[C@@H]1CC(=O)NN=C1c1cc(F)c(N2CCOCC2)c(Cl)c1,9.46,5.5,9.05,8.72,58%,–,–,–,–
C[C@@H]1OC(=O)NN=C1c1ccc(-c2ccccc2F)c(C(F)(F)F)c1,8.09,18,7.82,–,–,–,–,–,–
C[C@@H]1OC(=O)NN=C1c1ccc(-c2ccncc2)c(C(F)(F)F)c1,9.22,112,8.96,7.17,93%,41%,–,–,–
C[C@@H]1OC(=O)NN=C1c1ccc(-c2ccc(O)cc2)c(C(F)(F)F)c1,9.17,38,8.94,7.58,–,–,–,–,–
O=C1NN=C(c2ccc(N3CCOCC3)c(F)c2)CO1,8.16,26,7.81,6.74,94%,47%,100%,–,–
O=C1NN=C(c2ccc(-c3ccc(F)cc3)c(OC(F)(F)F)c2)CO1,8.25,39,7.89,6.65,85%,32%,68%,80%,–
C[C@@H]1OC(=O)NN=C1c1ccc(N2CCOCC2)c(C(F)(F)F)c1,9.47,18,9.11,8.20,84%,–,–,–,–
O=C1CCC(c2ccc(N3CCOCC3)c(F)c2)=NN1,8.21,31,7.70,6.72,–,80%,–,–,–
COc1ccc(-c2ccc(C3=NNC(=O)O[C@H]3C)cc2C(F)(F)F)cc1,7.66,4.1,7.42,–,–,–,–,–,–
C[C@@H]1OC(=O)NN=C1c1ccc(-c2ccnc(N)c2)c(C(F)(F)F)c1,9.16,109,8.84,7.12,83%,36%,56%,31%,42 mL/min/kg
O=C1NN=C(c2ccc(N3CCC(F)(F)CC3)c(C(F)(F)F)c2)CO1,8.80,–,8.30,–,67%,37%,28%,–,–
C[C@@H]1OC(=O)NN=C1c1ccc(N2CCN(C)CC2)c(C(F)(F)F)c1,9.49,172,9.09,7.26,11%,18%,–,–,–
O=C1NN=C(c2ccc(N3CCOCC3)c(C(F)(F)F)c2)CO1,8.73,12,8.47,7.64,83%,–,–,–,–
Cc1cc(-c2ccc(C3=NNC(=O)O[C@H]3C)cc2C(F)(F)F)ccn1,8.34,14,8.21,–,–,–,–,–,–
C[C@@H]1CC(=O)NN=C1c1cc(F)c(N2CCOCC2)c(F)c1,9.01,4,8.68,8.40,90%,–,–,–,–
C[C@@H]1OC(=O)NN=C1c1ccc(-c2cccc(F)c2)c(C(F)(F)F)c1,8.47,22,8.23,–,–,–,–,–,–
O=C1NN=C(c2ccc(N3CCC(F)(F)CC3)c(F)c2)CO1,8.81,178,8.41,–,84%,19%,–,82%,91.7 mL/min/kg
C[C@@H]1CC(=O)NN=C1c1ccc(N2CCOCC2)c(F)c1,9.17,18,8.86,7.90,94%,–,–,–,–
O=C1CCC(c2cc(Cl)c(N3CCOCC3)c(Cl)c2)=NN1,8.16,8.5,7.77,–,–,–,–,–,–
C[C@@H]1CC(=O)NN=C1c1ccc(N2CCCCC2)cc1,8.76,126,8.35,6.66,27%,–,–,–,–
COc1ccc(-c2ccc(C3=NNC(=O)O[C@H]3C)cc2C(F)(F)F)cn1,7.65,4,7.40,–,–,–,–,–,–
O=C1NN=C(c2ccc(-c3ccc(F)cc3)c(F)c2)CO1,8.83,57,8.44,7.08,84%,54%,–,–,–
O=C1NN=C(c2ccc(-c3ccc(F)cc3)c(C(F)(F)F)c2)CO1,8.60,112,8.10,–,84%,38%,44%,70%,5.83 mL/min/kg
Cc1ccc(-c2ccc(C3=NNC(=O)O[C@H]3C)cc2C(F)(F)F)cn1,8.36,8,8.20,–,–,–,–,–,–
